# Experimental data from patent publication US20250263416A1, “SPPL2a INHIBITORS” (Incyte Corporation, priority 2024, published 2025).
# Entries after “also recorded” stand apart in the source; their conditions may differ.
# Tests used:
# human SPPL2a = target: T1, human SPPL2a (Homo sapiens, UniProt Q8TCT8); experiment: Western blot assay of TNFα-GFP cleavage in U2OS cells expressing human SPPL2a; format: cell-based; details: SPPL2a-U2OS reporter cells, 24 h
# T1 construct: expressed in transfected cells; host or cells: U2OS (SPPL2a reporter cell line)
# T1 sequence (Q8TCT8 26-520): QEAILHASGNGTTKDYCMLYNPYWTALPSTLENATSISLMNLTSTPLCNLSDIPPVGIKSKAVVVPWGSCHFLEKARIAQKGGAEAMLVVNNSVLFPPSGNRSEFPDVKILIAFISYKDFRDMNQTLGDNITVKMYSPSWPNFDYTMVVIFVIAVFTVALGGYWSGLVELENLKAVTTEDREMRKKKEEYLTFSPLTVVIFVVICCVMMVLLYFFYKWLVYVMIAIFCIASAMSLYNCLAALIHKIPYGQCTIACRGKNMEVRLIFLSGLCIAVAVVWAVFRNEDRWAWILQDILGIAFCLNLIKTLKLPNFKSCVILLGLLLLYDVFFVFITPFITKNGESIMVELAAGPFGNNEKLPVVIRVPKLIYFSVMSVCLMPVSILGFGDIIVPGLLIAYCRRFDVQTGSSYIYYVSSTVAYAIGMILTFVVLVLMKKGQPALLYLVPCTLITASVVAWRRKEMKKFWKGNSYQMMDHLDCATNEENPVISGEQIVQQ
# Method: To confirm the cleavage of TNF-α in the U2OS cells that express human SPPL2a, a western blot assay was performed. The same cell line used for the imaging assays were used; these cells express human SPPL2a constitutively and an eGFP-labelled TNFα (aa 1-76) NTF substrate under a doxycycline promotor. In the presence of SPPL2a activity, TNFα-GFP is cleaved at the NTF, resulting in a single 54-56 kDa band (lower MW). If SPPL2a activity is inhibited, TNFα GFP processing is abrogated resulting in a higher molecular weight band (60-62 kDa; complete inhibition) and or both 54-56 kDa and 60-62 kDa bands (incomplete inhibition, smeared appearance) on the blot. Both Example 1 and Example A were added at indicated concentrations, and cells were incubated for 24 h with the inhibitors. Total cell lysated were prepared in ice cold-1X RIPA buffer containing protease inhibitor cocktail (AKR-190, Cell BioLabs). Lysates were collected and quantified for the total protein on NanoDrop using BCA kit (23227, Thermo Scientific). […] To detect cleaved and un-cleaved TNFα-GFP fragments, anti-GFP antibody (AF4240, R&D Biosystems) was used as a primary antibody and detected using anti-goat detection module (DM-006, ProteinSimple) according to the manufacturer's protocol. Data was analyzed using ProteinSimple compass software.
# [1] = system: Collagen-Induced Arthritis (CIA) mouse model; experiment: Collagen-induced arthritis (CIA) mouse model; format: in vivo, DBA-1 mice; details: 50 mg/kg dose, compared to the vehicle
# Text: Female DBA-1 mice (8-9 weeks old) were used in the CIA mouse model. This model is widely used to evaluate efficacy of immunomodulatory drugs on autoimmune diseases, such as arthritis. DBA/1 mice develop collagen-induced arthritis (CIA) after immunization with bovine type II collagen emulsified in complete Freund's adjuvant (CFA), followed by a booster dose 21 days later. Both the immunizations were given subcutaneously, approximately 25 mm from the base of the tail on opposite sides. Immunizations were performed under a short duration isoflurane anesthesia. Mice were evaluated for the disease progression up to 45 days. […] Statistical significance was determined using Two-way ANOVA with multiple comparison tests to compare all groups to the vehicle.
# [2] = system: Imiquimod (IMQ)-induced psoriasis mouse model; experiment: Imiquimod (IMQ)-induced psoriasis mouse model; format: in vivo, BALB/c female mice; details: 15 mg/kg PO BID
# Method: A comparative study was performed to evaluate the efficacy of the deuterated-inhibitor Example 1 to Example A in the mouse model of psoriasis. Briefly, BALB/c female mice (7-8 week age) were shaved on the dorsal skin and 62.5 mg of IMQ cream was applied daily until day 9. Simultaneously, 15 mg of IMQ cream was applied on one ear daily until day 9. Example 1 and Example A were given orally (PO) at 15 mg/kg, BID. Mice were monitored and clinical signs of psoriasis were recorded (PSI score), both on the dorsal skin (erythema, scaling & thickness) and on the IMQ-applied ear (thickness). All data is presented as mean+SEM. For comparison of more than two groups, ANOVA was used. Pearson product moment correlation was used to test for correlations. All statistical analysis was performed using GraphPad Prism™ 10.
# [3] = system: MRL/MpJ-Faslpr/J mice, lupus-like disease; experiment: Mouse model of systemic lupus (SLE); format: in vivo
# Method: A mouse model of SLE was used to evaluate the treatment potential of SPPL2a inhibition by Example A in vivo in female mice aged 8 weeks. The MRL/MpJ-Faslpr/J (JAX stock #000485) mice used in this study develop a spontaneously accelerated and aggressive lupus-like disease characterized by immune-mediated damage to the organs, and by the presence of circulating auto-Abs against dsDNA, which are serological hallmarks of SLE. Mice were prophylactically treated orally with Example A at 15 mg/kg and 30 mg/kg dose, twice daily after allotment into different groups starting at week 10. As a control, cyclophosphamide at 25 mg/kg dose was given intraperitoneally, twice weekly. Mice were monitored weekly for the clinical sign development, proteinuria, skin lesions and lymphadenopathy. The study was terminated by euthanizing mice at 20 weeks of age following 10 weeks of dosing. All data is presented as mean+SEM. For comparison of more than two groups, ANOVA was used. All statistical analysis was performed using GraphPad Prism™10.
# Inflammatory cytokine levels (TNFα and IFNγ) and murine immunoglobulin levels (Ig) were measured using MSD® multi-spot assay kits.
# [4] = both doses tested (15 and 30 mg/kg orally twice daily)
# [5] = both treated groups (15 and 30 mg/kg BID)
structure (smiles),measurement,setting,value
"CNC(=O)c1nc(C)c(C(=O)NC[C@@H](C)C(=O)N[C@@H]2C(=O)N3CCCN3Cc3ccccc32)s1 [Example A, N^2,4-dimethyl-N^5—((R)-2-methyl-3-oxo-3-(((S)-11-oxo-2,3,10,11-tetrahydro-1H,5H-benzo[d]pyrazolo[1,2-a][1,2]diazepin-10-yl)amino)propyl)thiazole-2,5-dicarboxamide]",TNFα-GFP cleavage inhibition (SPPL2a activity inhibition),human SPPL2a,SPPL2a activity inhibition; also recorded: Comparable and significant TNFα-GFP cleavage inhibition
same,clinical signs of CIA,[1],significantly reduced
same,dorsal PSI scores,[2],alleviate
same,ear thickness measurements,[2],alleviate
same,clinical signs of psoriasis disease,[2]; compared to vehicle group,significantly reduced
same,Mouse IL-12 level in plasma,[2]; terminal day,significant reduction
same,Mouse TNFα level in plasma,[2]; terminal day,significant reduction
same,TNFα levels in mouse serum,[3]; 15 mg/kg BID,No significant changes
same,Levels of IgA,[3]; 15 mg/kg dose,significantly down regulated
same,kidney pathology,"[3]; 15 mg/kg, compared to vehicle control",did not exhibit a test article-related change compared to the vehicle control except in the blood vessels
same,TNFα levels in mouse serum,[3]; 30 mg/kg BID,significantly inhibits
same,antibody production in mouse serum,[3]; 30 mg/kg BID,significantly inhibits
same,Levels of IgA,[3]; 30 mg/kg dose,trended lower
same,"kidney pathology: membranoproliferative nephritis, tubular dilation and casts, interstitial inflammation, fibrosis, blood vessel necrosis, and inflammation",[3]; 30 mg/kg oral twice daily,statistically significant decrease
same,Serum IFNγ levels,[3]; both doses (15 and 30 mg/kg BID),modest increase
same,proteinuria,[3]; [4],effectively reduced; also recorded: Significant reduction
same,skin lesion formation / skin lesional scores,[3]; [4],effectively reduced; also recorded: Significant reduction
same,IgG1,[3]; [5],significantly lower
same,IgG2a,[3]; [5],significantly lower
same,IgG2b,[3]; [5],significantly lower
same,IgG3,[3]; [5],significantly lower
same,IgM,[3]; [5],significantly lower
same,anti ds-DNA antibody production,[3]; compared to vehicle control,significantly reduced
same,lymphadenopathy,[3]; highest dose tested,significantly reduced; also recorded: Significant reduction
